Reference: publication doi:10.1101/2024.05.17.594698v1 (bioRxiv, 2024)
Where a SMILES comes first, the peptide text is derived from it.

How the values were obtained:
human CD4+ T cells = assay: Cellular toxicity by Annexin V / PI staining; assay type: cell-based; conditions: DOS 10 µM; Fig S4J, n = 4 donors
[1] = target: T1, GATOR/mTOR complex proteins (MIOS and WDR59) (Homo sapiens, UniProt Q6PJI9+Q9NXC5); assay: Biotinylated DOS pull down from human CD4+ T cell extracts; assay type: binding; conditions: overnight treatment, streptavidin IP, western blot, Fig 1H
T1 sequence (Q9NXC5 1-875): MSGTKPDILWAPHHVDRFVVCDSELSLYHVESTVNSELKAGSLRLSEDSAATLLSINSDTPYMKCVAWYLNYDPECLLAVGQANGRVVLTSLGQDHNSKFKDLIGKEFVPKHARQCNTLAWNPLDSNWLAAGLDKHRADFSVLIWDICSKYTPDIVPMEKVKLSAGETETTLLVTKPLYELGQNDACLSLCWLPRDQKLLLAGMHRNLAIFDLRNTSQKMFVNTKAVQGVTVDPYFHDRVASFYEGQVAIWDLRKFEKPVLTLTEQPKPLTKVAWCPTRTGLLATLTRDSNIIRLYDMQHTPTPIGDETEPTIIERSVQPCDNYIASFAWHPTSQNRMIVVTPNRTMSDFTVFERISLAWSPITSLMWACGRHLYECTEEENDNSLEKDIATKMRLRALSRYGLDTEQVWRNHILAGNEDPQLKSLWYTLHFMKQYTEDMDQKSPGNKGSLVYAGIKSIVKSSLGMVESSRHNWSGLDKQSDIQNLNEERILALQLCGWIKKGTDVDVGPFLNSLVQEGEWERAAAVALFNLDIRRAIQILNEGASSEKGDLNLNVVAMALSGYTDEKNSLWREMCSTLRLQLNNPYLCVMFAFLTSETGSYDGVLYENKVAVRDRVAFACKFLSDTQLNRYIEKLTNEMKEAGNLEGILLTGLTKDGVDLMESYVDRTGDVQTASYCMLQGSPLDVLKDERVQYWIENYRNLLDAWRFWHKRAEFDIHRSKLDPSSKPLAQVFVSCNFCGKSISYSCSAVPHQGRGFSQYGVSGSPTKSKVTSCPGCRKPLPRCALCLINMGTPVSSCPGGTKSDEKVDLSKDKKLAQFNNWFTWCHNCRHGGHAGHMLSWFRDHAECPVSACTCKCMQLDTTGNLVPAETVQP
T1 sequence (Q6PJI9 1-974): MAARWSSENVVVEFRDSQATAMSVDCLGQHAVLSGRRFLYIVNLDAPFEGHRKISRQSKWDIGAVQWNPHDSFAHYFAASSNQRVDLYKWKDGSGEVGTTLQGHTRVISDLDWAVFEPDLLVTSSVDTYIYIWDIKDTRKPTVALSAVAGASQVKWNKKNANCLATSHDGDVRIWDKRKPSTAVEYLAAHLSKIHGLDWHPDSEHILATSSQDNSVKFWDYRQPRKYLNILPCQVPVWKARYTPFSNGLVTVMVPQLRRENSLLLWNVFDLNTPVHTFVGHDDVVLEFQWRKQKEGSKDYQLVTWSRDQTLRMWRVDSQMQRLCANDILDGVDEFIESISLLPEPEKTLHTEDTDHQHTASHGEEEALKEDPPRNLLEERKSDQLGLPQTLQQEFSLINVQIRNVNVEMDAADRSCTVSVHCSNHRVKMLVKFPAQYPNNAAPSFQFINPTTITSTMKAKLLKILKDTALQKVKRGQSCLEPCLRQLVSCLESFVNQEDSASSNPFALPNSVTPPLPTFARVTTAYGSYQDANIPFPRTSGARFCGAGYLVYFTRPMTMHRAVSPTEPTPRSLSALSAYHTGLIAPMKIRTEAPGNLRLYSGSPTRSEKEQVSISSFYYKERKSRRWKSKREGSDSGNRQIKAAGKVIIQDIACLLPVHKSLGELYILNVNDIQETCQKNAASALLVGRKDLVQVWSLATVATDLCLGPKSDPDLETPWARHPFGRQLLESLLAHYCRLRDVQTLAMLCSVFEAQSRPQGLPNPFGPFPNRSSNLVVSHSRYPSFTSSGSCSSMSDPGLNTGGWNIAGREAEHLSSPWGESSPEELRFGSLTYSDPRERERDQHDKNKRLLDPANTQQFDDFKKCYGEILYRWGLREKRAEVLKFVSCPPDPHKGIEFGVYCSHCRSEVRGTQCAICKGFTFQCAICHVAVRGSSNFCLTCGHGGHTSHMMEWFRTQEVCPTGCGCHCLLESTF

[2] = system: telomerase in human CD4+ Tsen; assay: Telomerase activity; assay type: cell-based; conditions: Tsen 3 days after DOS treatment; Fig S4I, n = 5 donors
H1N1 virus = conditions: mouse, in vivo
AMPK in human CD4+ Tsen = assay: AMPK activity as ACC phosphorylation; assay type: cell-based; conditions: 4 hours after DOS 10 µM treatment; Fig S3I right, blot number
[3] = system: primary T cell sMAC composed of sestrin and MAPK kinases; assay: Biotinylated DOS pull down from human CD4+ T cell extracts; assay type: binding; conditions: overnight treatment, streptavidin IP, western blot, Fig 1H
[4] = system: recombinant sestrins (sestrin1-FLAG, sestrin2-FLAG); assay: In vitro pull down with biotinylated DOS, recombinant tagged proteins; assay type: binding; conditions: DOS-biotin 10 µM, streptavidin beads, anti-flag immunoblot; Fig 1C
AMPK1-His-tagged = AMPK1-His-tagged (Homo sapiens, UniProt Q13131); assay: as above; assay type: binding; conditions: DOS-biotin 10 µM, streptavidin beads; Fig 1C
[5] = system: primary human CD4+ T cells; assay: DOS-FITC incorporation by flow cytometry; assay type: cell-based; conditions: T cells depleted of all three sestrins by shRNAs; Fig 1F
[6] = target: T2, ERK, JNK and p38 MAPK in Tsen sestrin 2 immunoprecipitates (sMACs) (Homo sapiens, UniProt P58004); assay: ELISA-based in vitro kinase assay on sestrin 2 immunoprecipitates; assay type: biochemical; conditions: DOS 10 µM, 30 minutes, ATP 200 μM; Fig 1I, n = 5 donors
T2 sequence (P58004 1-480): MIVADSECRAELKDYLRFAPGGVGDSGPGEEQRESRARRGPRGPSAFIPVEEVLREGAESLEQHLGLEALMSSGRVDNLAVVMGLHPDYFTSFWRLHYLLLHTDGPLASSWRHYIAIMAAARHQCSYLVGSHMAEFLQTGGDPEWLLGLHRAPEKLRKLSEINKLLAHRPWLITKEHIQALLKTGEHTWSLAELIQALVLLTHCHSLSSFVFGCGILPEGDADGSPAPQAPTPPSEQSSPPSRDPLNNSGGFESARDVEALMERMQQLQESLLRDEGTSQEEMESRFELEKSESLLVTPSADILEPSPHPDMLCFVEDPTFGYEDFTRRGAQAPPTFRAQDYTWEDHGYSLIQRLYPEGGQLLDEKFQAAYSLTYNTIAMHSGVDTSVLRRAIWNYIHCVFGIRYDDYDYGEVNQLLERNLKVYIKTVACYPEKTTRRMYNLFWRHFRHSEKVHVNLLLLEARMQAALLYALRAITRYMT

[7] = Observation of autoimmunity in pre-clinical cohorts; assay type: in vivo; conditions: large pre-clinical cohorts (over 400 animals)

Chain of AMPK1-His-tagged (Q13131 whole entry): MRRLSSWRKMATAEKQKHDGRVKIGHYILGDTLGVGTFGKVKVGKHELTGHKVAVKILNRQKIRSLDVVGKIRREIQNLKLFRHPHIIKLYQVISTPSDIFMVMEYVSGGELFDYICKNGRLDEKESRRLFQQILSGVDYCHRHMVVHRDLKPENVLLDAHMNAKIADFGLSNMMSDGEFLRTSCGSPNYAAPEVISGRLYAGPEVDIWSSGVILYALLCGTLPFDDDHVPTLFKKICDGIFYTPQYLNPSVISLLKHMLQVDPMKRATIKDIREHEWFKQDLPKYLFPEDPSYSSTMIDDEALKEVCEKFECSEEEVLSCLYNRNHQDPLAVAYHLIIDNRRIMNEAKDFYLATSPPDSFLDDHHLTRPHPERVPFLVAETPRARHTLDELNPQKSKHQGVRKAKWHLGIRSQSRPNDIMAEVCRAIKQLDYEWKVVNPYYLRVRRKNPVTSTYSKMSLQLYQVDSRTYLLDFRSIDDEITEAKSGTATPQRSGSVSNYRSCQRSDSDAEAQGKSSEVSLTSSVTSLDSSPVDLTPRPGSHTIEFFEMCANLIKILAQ

CC[C@H](C)[C@@H]1NC(=O)[C@H](Cc2ccccc2)NC(=O)[C@H](C)NC(=O)[C@H](C(C)C)NC(=O)[C@@H]2CCCN2C1=O [DOS] (cyclo(AFIPV))
Cell damage or death (Annexin-propidium iodide staining) (human CD4+ T cells): did not cause cell damage or death | Binding to GATOR/mTOR complex proteins [1]: not to GATOR/mTOR complex proteins | Telomerase activity [2]: not affected | Lung necrosis after H1N1 infection (H1N1 virus): no sign of lung necrosis | p-ACC/ACC by immunoblotting, fold change to untreated control set as 1 (AMPK in human CD4+ Tsen): 0.25 | Binding to primary T cell sMAC [3]: directly bound | Direct binding to recombinant sestrins [4]: direct DOS binding to sestrins | Direct binding to recombinant AMPK (AMPK1-His-tagged): not AMPK | DOS entrance in sestrin-null T cells [5]: did not enter | ERK, JNK and p38 MAPK kinase activity (autophosphorylation) in sMAC [6]: suppressed | Spontaneous autoimmunity [7]: yet to see any autoimmunity case
